Experimental data taken from PubChem BioAssay (NCI).
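Results reflect a 48-hour exposure of cells in 96-well plates to compound at five concentrations. TGI is the concentration that stops growth completely.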

Assays:
Experiment in all cases: DTP human tumour cell line panel, 48 h
SNB-78 CNS = tested on: SNB-78 CNS
OVCAR-4 ovarian = tested on: OVCAR-4 ovarian
SK-MEL-2 melanoma = tested on: SK-MEL-2 melanoma
MOLT-4 leukemia = tested on: MOLT-4 leukemia
SNB-19 CNS = tested on: SNB-19 CNS
SF-539 CNS = tested on: SF-539 CNS
HOP-92 NSCLC = tested on: HOP-92 NSCLC
OVCAR-5 ovarian = tested on: OVCAR-5 ovarian
SK-MEL-28 melanoma = tested on: SK-MEL-28 melanoma
UACC-62 melanoma = tested on: UACC-62 melanoma
NCI-H460 lung = tested on: NCI-H460 lung
U251 CNS = tested on: U251 CNS
LOX IMVI melanoma = tested on: LOX IMVI melanoma
HCT-15 colon = tested on: HCT-15 colon
LXFL 529 NSCLC = tested on: LXFL 529 NSCLC
HL-60(TB) leukemia = tested on: HL-60(TB) leukemia
PC-3 prostate = tested on: PC-3 prostate
DMS 114 small cell lung = tested on: DMS 114 small cell lung
HCC-2998 colon = tested on: HCC-2998 colon
HCT-116 colon = tested on: HCT-116 colon
UO-31 renal = tested on: UO-31 renal
HOP-62 NSCLC = tested on: HOP-62 NSCLC
A498 renal = tested on: A498 renal
SR leukemia = tested on: SR leukemia
A549 NSCLC = tested on: A549 NSCLC
SK-MEL-5 melanoma = tested on: SK-MEL-5 melanoma
IGROV1 ovarian = tested on: IGROV1 ovarian
OVCAR-8 ovarian = tested on: OVCAR-8 ovarian
T-47D breast = tested on: T-47D breast
RPMI-8226 leukemia = tested on: RPMI-8226 leukemia
RXF 393 renal = tested on: RXF 393 renal
MCF7 breast = tested on: MCF7 breast
SF-268 CNS = tested on: SF-268 CNS
ACHN renal = tested on: ACHN renal
XF 498 CNS = tested on: XF 498 CNS
SK-OV-3 ovarian = tested on: SK-OV-3 ovarian
MDA-MB-435 = tested on: MDA-MB-435
DU-145 prostate = tested on: DU-145 prostate
786-0 renal = tested on: 786-0 renal
NCI-H226 lung = tested on: NCI-H226 lung
SF-295 CNS = tested on: SF-295 CNS
NCI/ADR-RES ovarian = tested on: NCI/ADR-RES ovarian
DMS 273 small cell lung = tested on: DMS 273 small cell lung
MALME-3M melanoma = tested on: MALME-3M melanoma
HOP-18 NSCLC = tested on: HOP-18 NSCLC
OVCAR-3 ovarian = tested on: OVCAR-3 ovarian
CAKI-1 renal = tested on: CAKI-1 renal
M14 melanoma = tested on: M14 melanoma
EKVX NSCLC = tested on: EKVX NSCLC
KM20L2 colon = tested on: KM20L2 colon
M19-MEL melanoma = tested on: M19-MEL melanoma
MDA-MB-231 breast = tested on: MDA-MB-231 breast
HT29 colon = tested on: HT29 colon
HS 578T breast = tested on: HS 578T breast
NCI-H522 lung = tested on: NCI-H522 lung
UACC-257 melanoma = tested on: UACC-257 melanoma
SN12C renal = tested on: SN12C renal
SW-620 colon = tested on: SW-620 colon
K-562 leukemia = tested on: K-562 leukemia
MDA-N = tested on: MDA-N
TK-10 renal = tested on: TK-10 renal
KM12 colon = tested on: KM12 colon
NCI-H23 lung = tested on: NCI-H23 lung
SNB-75 CNS = tested on: SNB-75 CNS
COLO 205 colon = tested on: COLO 205 colon
CCRF-CEM leukemia = tested on: CCRF-CEM leukemia
DLD-1 colon = tested on: DLD-1 colon
RXF-631 renal = tested on: RXF-631 renal

C=CCNc1nc2c(s1)C(=O)c1ccccc1C2=O
TGI (SNB-78 CNS): 72.9 µM
TGI (OVCAR-4 ovarian): 26.4 µM
TGI (SK-MEL-2 melanoma): 25.9 µM
TGI (MOLT-4 leukemia): 10.6 µM
TGI (SNB-19 CNS): 19.2 µM
TGI (SF-539 CNS): 16.7 µM
TGI (HOP-92 NSCLC): 21.8 µM
TGI (OVCAR-5 ovarian): 37.5 µM
TGI (SK-MEL-28 melanoma): 32.8 µM
TGI (UACC-62 melanoma): 9.37 µM
TGI (NCI-H460 lung): 28.5 µM
TGI (U251 CNS): 20.1 µM
TGI (LOX IMVI melanoma): 19.6 µM
TGI (HCT-15 colon): 30.7 µM
TGI (LXFL 529 NSCLC): 24.2 µM
TGI (HL-60(TB) leukemia): 4.02 µM
TGI (PC-3 prostate): 30.3 µM
TGI (DMS 114 small cell lung): 3.27 µM
TGI (HCC-2998 colon): 35.3 µM
TGI (HCT-116 colon): 13.6 µM
TGI (UO-31 renal): 26.1 µM
TGI (HOP-62 NSCLC): 26.7 µM
TGI (A498 renal): 34 µM
TGI (SR leukemia): > 100 µM
TGI (A549 NSCLC): 19.3 µM
TGI (SK-MEL-5 melanoma): 3.1 µM
TGI (IGROV1 ovarian): 38.3 µM
TGI (OVCAR-8 ovarian): 20.1 µM
TGI (T-47D breast): 68.3 µM
TGI (RPMI-8226 leukemia): 17.4 µM
TGI (RXF 393 renal): 35.4 µM
TGI (MCF7 breast): 24.4 µM
TGI (SF-268 CNS): 26 µM
TGI (ACHN renal): 20.2 µM
TGI (XF 498 CNS): 34.8 µM
TGI (SK-OV-3 ovarian): 31.7 µM
TGI (MDA-MB-435): 3.31 µM
TGI (DU-145 prostate): 35.6 µM
TGI (786-0 renal): 28.5 µM
TGI (NCI-H226 lung): 40.1 µM
TGI (SF-295 CNS): 28.2 µM
TGI (NCI/ADR-RES ovarian): 82.8 µM
TGI (DMS 273 small cell lung): 28.2 µM
TGI (MALME-3M melanoma): 25.6 µM
TGI (HOP-18 NSCLC): 23.1 µM
TGI (OVCAR-3 ovarian): 37.6 µM
TGI (CAKI-1 renal): 26.8 µM
TGI (M14 melanoma): 16.7 µM
TGI (EKVX NSCLC): 29 µM
TGI (KM20L2 colon): 33.5 µM
TGI (M19-MEL melanoma): 3.22 µM
TGI (MDA-MB-231 breast): 23.8 µM
TGI (HT29 colon): 50.2 µM
TGI (HS 578T breast): > 100 µM
TGI (NCI-H522 lung): 21.4 µM
TGI (UACC-257 melanoma): 7.2 µM
TGI (SN12C renal): 27.4 µM
TGI (SW-620 colon): 32.4 µM
TGI (K-562 leukemia): 35.8 µM
TGI (MDA-N): 3.28 µM
TGI (TK-10 renal): 34.2 µM
TGI (KM12 colon): 28.1 µM
TGI (NCI-H23 lung): 21.8 µM
TGI (SNB-75 CNS): 38.8 µM
TGI (COLO 205 colon): 41.2 µM

C=C1C(=O)OC2C/C(C)=C/CC/C(C)=C/CCC3(COC(C)=O)OC3CC12 (stereo unspecified)
TGI (SNB-78 CNS): 30.3 µM
TGI (OVCAR-4 ovarian): 46.5 µM
TGI (SK-MEL-2 melanoma): 14.4 µM
TGI (MOLT-4 leukemia): 26.3 µM
TGI (SNB-19 CNS): 31.4 µM
TGI (SF-539 CNS): 7.85 µM
TGI (OVCAR-5 ovarian): 30.5 µM
TGI (SK-MEL-28 melanoma): 23.1 µM
TGI (UACC-62 melanoma): 27.4 µM
TGI (NCI-H460 lung): 25.2 µM
TGI (CCRF-CEM leukemia): 8.49 µM
TGI (U251 CNS): 23.3 µM
TGI (LOX IMVI melanoma): 23 µM
TGI (HCT-15 colon): 10.7 µM
TGI (LXFL 529 NSCLC): 8.1 µM
TGI (HL-60(TB) leukemia): 5.85 µM
TGI (DLD-1 colon): 14.4 µM
TGI (DMS 114 small cell lung): 14.6 µM
TGI (HCC-2998 colon): 21.5 µM
TGI (HCT-116 colon): 3.87 µM
TGI (UO-31 renal): 25.5 µM
TGI (HOP-62 NSCLC): 34.7 µM
TGI (A498 renal): 27 µM
TGI (A549 NSCLC): 32.2 µM
TGI (SK-MEL-5 melanoma): 28.3 µM
TGI (IGROV1 ovarian): 31.9 µM
TGI (OVCAR-8 ovarian): 19.8 µM
TGI (RPMI-8226 leukemia): 13 µM
TGI (RXF 393 renal): 18 µM
TGI (SF-268 CNS): 21.7 µM
TGI (ACHN renal): 27.5 µM
TGI (XF 498 CNS): 19.5 µM
TGI (SK-OV-3 ovarian): 26.7 µM
TGI (786-0 renal): 17.4 µM
TGI (SF-295 CNS): 29.3 µM
TGI (DMS 273 small cell lung): 20.9 µM
TGI (MALME-3M melanoma): 25.7 µM
TGI (HOP-18 NSCLC): 23.3 µM
TGI (OVCAR-3 ovarian): 19.2 µM
TGI (CAKI-1 renal): 9.48 µM
TGI (M14 melanoma): 18.5 µM
TGI (EKVX NSCLC): 38.6 µM
TGI (KM20L2 colon): 19.9 µM
TGI (M19-MEL melanoma): 26.4 µM
TGI (HT29 colon): 24.1 µM
TGI (NCI-H522 lung): 2.9 µM
TGI (UACC-257 melanoma): 29.6 µM
TGI (SN12C renal): 34.1 µM
TGI (SW-620 colon): 5.09 µM
TGI (K-562 leukemia): 32.7 µM
TGI (TK-10 renal): 19.5 µM
TGI (KM12 colon): 27.9 µM
TGI (NCI-H23 lung): 26 µM
TGI (SNB-75 CNS): 27.6 µM
TGI (COLO 205 colon): 15.6 µM

CCNC(=O)COc1ccc(Br)cc1Br
TGI (SNB-78 CNS): > 100 µM
TGI (OVCAR-4 ovarian): > 100 µM
TGI (SK-MEL-2 melanoma): > 100 µM
TGI (MOLT-4 leukemia): > 100 µM
TGI (SNB-19 CNS): > 100 µM
TGI (SF-539 CNS): > 100 µM
TGI (HOP-92 NSCLC): > 100 µM
TGI (OVCAR-5 ovarian): > 100 µM
TGI (SK-MEL-28 melanoma): > 100 µM
TGI (UACC-62 melanoma): > 100 µM
TGI (NCI-H460 lung): > 100 µM
TGI (CCRF-CEM leukemia): > 100 µM
TGI (U251 CNS): > 100 µM
TGI (LOX IMVI melanoma): > 100 µM
TGI (HCT-15 colon): > 100 µM
TGI (LXFL 529 NSCLC): > 100 µM
TGI (HL-60(TB) leukemia): > 100 µM
TGI (DLD-1 colon): > 100 µM
TGI (DMS 114 small cell lung): > 100 µM
TGI (HCC-2998 colon): > 100 µM
TGI (HCT-116 colon): > 100 µM
TGI (UO-31 renal): > 100 µM
TGI (HOP-62 NSCLC): > 100 µM
TGI (A498 renal): > 100 µM
TGI (SR leukemia): > 100 µM
TGI (A549 NSCLC): > 100 µM
TGI (SK-MEL-5 melanoma): > 100 µM
TGI (IGROV1 ovarian): > 100 µM
TGI (RPMI-8226 leukemia): > 100 µM
TGI (RXF 393 renal): > 100 µM
TGI (SF-268 CNS): > 100 µM
TGI (ACHN renal): > 100 µM
TGI (SK-OV-3 ovarian): > 100 µM
TGI (786-0 renal): > 100 µM
TGI (NCI-H226 lung): > 100 µM
TGI (RXF-631 renal): > 100 µM
TGI (SF-295 CNS): > 100 µM
TGI (DMS 273 small cell lung): > 100 µM
TGI (MALME-3M melanoma): > 100 µM
TGI (HOP-18 NSCLC): > 100 µM
TGI (OVCAR-3 ovarian): > 100 µM
TGI (CAKI-1 renal): > 100 µM
TGI (M14 melanoma): > 100 µM
TGI (EKVX NSCLC): 34.3 µM
TGI (KM20L2 colon): > 100 µM
TGI (M19-MEL melanoma): > 100 µM
TGI (HT29 colon): > 100 µM
TGI (NCI-H522 lung): > 100 µM
TGI (UACC-257 melanoma): > 100 µM
TGI (SN12C renal): > 100 µM
TGI (SW-620 colon): > 100 µM
TGI (K-562 leukemia): > 100 µM
TGI (KM12 colon): > 100 µM
TGI (NCI-H23 lung): > 100 µM
TGI (SNB-75 CNS): > 100 µM
TGI (COLO 205 colon): > 100 µM
